{
  "source": "paper PMC8079033",
  "about": "“Design, synthesis, anticancer evaluation, and molecular modelling studies of novel tolmetin derivatives as potential VEGFR-2 inhibitors and apoptosis inducers” (Journal of Enzyme Inhibition and Medicinal Chemistry, 2021)",
  "key": {"[1]": {"tested_on": "SN 12 C", "test": "NCI 60-cell line one-dose antiproliferative screen (SRB)", "format": "cell-based", "conditions": "Homo sapiens, SN12C, read-out: growth inhibition % (GI%)", "procedure": "(§1) Anticancer activity screening of the newly synthesised compounds was measured in vitro utilising 60 different human tumour cell lines provided by US National Cancer Institute according to previously reported standard procedure[41–43] as follows: Cells are inoculated into 96-well microtiter plates in 100 ml. After cell inoculation, the microtiter plates are incubated at 37 °C, 5% CO2, 95% air, and 100% relative humidity for 24 h prior to addition of experimental compounds. After 24 h, two plates of each cell line are fixed in situ with TCA, to represent a measurement of the cell population for each cell line at the time of compound addition (Tz). Experimental compounds are solubilised in dimethyl sulfoxide at 400-fold the desired final maximum test concentration and stored frozen prior to use. At the time of compound addition, an aliquot of frozen concentrate is thawed and diluted to twice the desired final maximum test concentration with a complete medium containing […] gentamicin. Aliquots of […] of the compounds dilutions are added to the appropriate microtiter wells already containing 100 ml of medium, resulting in the required final compound concentration. Following compound addition, the plates are incubated for an additional 48 h at 37 °C, 5% CO2, 95% air, and 100% relative humidity. For adherent cells, the assay is terminated by the addition of cold trichloroacetic acid (TCA). Cells are fixed in situ by the gentle addition of 50 ml of cold 50% (w/v) TCA (final concentration, 10% TCA) and incubated for […] at 4 °C. The supernatant is discarded, and the plates are washed five times with tap water and air-dried. Sulforhodamine B (SRB) solution (100 ml) at 0.4% (w/v) in 1% acetic acid is added to each well, and plates are incubated for 10 min at room temperature. After staining, the unbound dye is removed by washing five times with 1% acetic acid and the plates are air-dried. The bound stain is subsequently solubilised with a 10 mM trizma base, and the absorbance is read on an automated plate reader at a wavelength of 515 nm. For suspension cells, the methodology is the same except that the assay is terminated by fixing settled cells at the bottom of the wells by gently adding 50 ml of 80% TCA (final concentration, 16% TCA). Using the absorbance measurements [time zero, (Tz), control growth, (C), and test growth in the presence of compound (Ti)], the percentage growth is calculated for each compound. The One-dose data are reported as a mean graph of the percent growth of treated cells. The reported number is growth relative to the no-compound control, and relative to the time zero number of cells. This allows the detection of both growth inhibition and lethality.\n(§2) Fifteen newly synthesised compounds were tested for their in vitro antiproliferative activity by the National Cancer Institute (NCI), Maryland, USA[50], under the Developmental Therapeutic Program (DTP)[41]^,[43]^,[51]^,[52]. The tested compounds were evaluated at a concentration of 10 µM on a panel of 60 tumour cell lines representing leukaemia and non-small cell lung, colon, CNS, melanoma, ovarian, renal, prostate, and breast cancers. The antiproliferative activity was presented by the NCI as percent growth of the treated cells and is presented in Table 1 as growth inhibition percentage (GI%) achieved by the tested compounds."}, "[2]": {"tested_on": "OVCAR-8", "test": "NCI 60-cell line one-dose antiproliferative screen (SRB)", "format": "cell-based", "conditions": "Homo sapiens, read-out: growth inhibition % (GI%)", "procedure": "as §1, §2"}, "[3]": {"tested_on": "U251", "test": "NCI 60-cell line one-dose antiproliferative screen (SRB)", "format": "cell-based", "conditions": "Homo sapiens, U-251, read-out: growth inhibition % (GI%)", "procedure": "as §1, §2"}, "[4]": {"tested_on": "NCI-H522", "test": "NCI 60-cell line one-dose antiproliferative screen (SRB)", "format": "cell-based", "conditions": "Homo sapiens, read-out: growth inhibition % (GI%)", "procedure": "as §1, §2"}, "[5]": {"tested_on": "SF-539", "test": "NCI 60-cell line one-dose antiproliferative screen (SRB)", "format": "cell-based", "conditions": "Homo sapiens, read-out: growth inhibition % (GI%)", "procedure": "as §1, §2"}, "[6]": {"tested_on": "SW-620", "test": "NCI 60-cell line one-dose antiproliferative screen (SRB)", "format": "cell-based", "conditions": "Homo sapiens, read-out: growth inhibition % (GI%)", "procedure": "as §1, §2"}, "[7]": {"tested_on": "HCT-15", "test": "NCI 60-cell line one-dose antiproliferative screen (SRB)", "format": "cell-based", "conditions": "Homo sapiens, read-out: growth inhibition % (GI%)", "procedure": "as §1, §2"}, "[8]": {"tested_on": "IGROV1", "test": "NCI 60-cell line one-dose antiproliferative screen (SRB)", "format": "cell-based", "conditions": "Homo sapiens, IGROV-1, read-out: growth inhibition % (GI%)", "procedure": "as §1, §2"}, "[9]": {"tested_on": "HCC-2998", "test": "NCI 60-cell line one-dose antiproliferative screen (SRB)", "format": "cell-based", "conditions": "Homo sapiens, read-out: growth inhibition % (GI%)", "procedure": "as §1, §2"}, "[10]": {"tested_on": "MDA-MB-231/ATCC", "test": "NCI 60-cell line one-dose antiproliferative screen (SRB)", "format": "cell-based", "conditions": "Homo sapiens, read-out: growth inhibition % (GI%)", "procedure": "as §1, §2"}, "[11]": {"tested_on": "PC-3", "test": "NCI 60-cell line one-dose antiproliferative screen (SRB)", "format": "cell-based", "conditions": "Homo sapiens, read-out: growth inhibition % (GI%)", "procedure": "as §1, §2"}, "[12]": {"tested_on": "MDA-MB-468", "test": "NCI 60-cell line one-dose antiproliferative screen (SRB)", "format": "cell-based", "conditions": "Homo sapiens, read-out: growth inhibition % (GI%)", "procedure": "as §1, §2"}, "[13]": {"tested_on": "UACC-62", "test": "NCI 60-cell line one-dose antiproliferative screen (SRB)", "format": "cell-based", "conditions": "Homo sapiens, read-out: growth inhibition % (GI%)", "procedure": "as §1, §2"}, "[14]": {"tested_on": "ACHN", "test": "NCI 60-cell line one-dose antiproliferative screen (SRB)", "format": "cell-based", "conditions": "Homo sapiens, read-out: growth inhibition % (GI%)", "procedure": "as §1, §2"}, "[15]": {"tested_on": "MDA-MB-435", "test": "NCI 60-cell line one-dose antiproliferative screen (SRB)", "format": "cell-based", "conditions": "Homo sapiens, read-out: growth inhibition % (GI%)", "procedure": "as §1, §2"}, "[16]": {"tested_on": "SNB-75", "test": "NCI 60-cell line one-dose antiproliferative screen (SRB)", "format": "cell-based", "conditions": "Homo sapiens, read-out: growth inhibition % (GI%)", "procedure": "as §1, §2"}, "[17]": {"tested_on": "CAKI-1", "test": "NCI 60-cell line one-dose antiproliferative screen (SRB)", "format": "cell-based", "conditions": "Homo sapiens, read-out: growth inhibition % (GI%)", "procedure": "as §1, §2"}, "[18]": {"tested_on": "LOX IMVI", "test": "NCI 60-cell line one-dose antiproliferative screen (SRB)", "format": "cell-based", "conditions": "Homo sapiens, read-out: growth inhibition % (GI%)", "procedure": "as §1, §2"}, "[19]": {"tested_on": "HOP-62", "test": "NCI 60-cell line one-dose antiproliferative screen (SRB)", "format": "cell-based", "conditions": "Homo sapiens, read-out: growth inhibition % (GI%)", "procedure": "as §1, §2"}, "[20]": {"tested_on": "UACC-257", "test": "NCI 60-cell line one-dose antiproliferative screen (SRB)", "format": "cell-based", "conditions": "Homo sapiens, read-out: growth inhibition % (GI%)", "procedure": "as §1, §2"}, "[21]": {"tested_on": "EKVX", "test": "NCI 60-cell line one-dose antiproliferative screen (SRB)", "format": "cell-based", "conditions": "Homo sapiens, read-out: growth inhibition % (GI%)", "procedure": "as §1, §2"}, "[22]": {"tested_on": "SF-295", "test": "NCI 60-cell line one-dose antiproliferative screen (SRB)", "format": "cell-based", "conditions": "Homo sapiens, read-out: growth inhibition % (GI%)", "procedure": "as §1, §2"}, "[23]": {"tested_on": "NCI-H226", "test": "NCI 60-cell line one-dose antiproliferative screen (SRB)", "format": "cell-based", "conditions": "Homo sapiens, read-out: growth inhibition % (GI%)", "procedure": "as §1, §2"}, "[24]": {"tested_on": "HOP-92", "test": "NCI 60-cell line one-dose antiproliferative screen (SRB)", "format": "cell-based", "conditions": "Homo sapiens, read-out: growth inhibition % (GI%)", "procedure": "as §1, §2"}, "[25]": {"tested_on": "NCI-H23", "test": "NCI 60-cell line one-dose antiproliferative screen (SRB)", "format": "cell-based", "conditions": "Homo sapiens, read-out: growth inhibition % (GI%)", "procedure": "as §1, §2"}, "[26]": {"tested_on": "MCF7", "test": "NCI 60-cell line one-dose antiproliferative screen (SRB)", "format": "cell-based", "conditions": "Homo sapiens, read-out: growth inhibition % (GI%)", "procedure": "as §1, §2"}, "[27]": {"tested_on": "OVCAR-5", "test": "NCI 60-cell line one-dose antiproliferative screen (SRB)", "format": "cell-based", "conditions": "Homo sapiens, read-out: growth inhibition % (GI%)", "procedure": "as §1, §2"}, "[28]": {"tested_on": "UO-31", "test": "NCI 60-cell line one-dose antiproliferative screen (SRB)", "format": "cell-based", "conditions": "Homo sapiens, read-out: growth inhibition % (GI%)", "procedure": "as §1, §2"}, "[29]": {"tested_on": "SK-MEL-5", "test": "NCI 60-cell line one-dose antiproliferative screen (SRB)", "format": "cell-based", "conditions": "Homo sapiens, read-out: growth inhibition % (GI%)", "procedure": "as §1, §2"}, "[30]": {"tested_on": "SF-268", "test": "NCI 60-cell line one-dose antiproliferative screen (SRB)", "format": "cell-based", "conditions": "Homo sapiens, read-out: growth inhibition % (GI%)", "procedure": "as §1, §2"}},
  "data": [
    {"smiles": "Cc1ccc(C(=O)c2ccc(CC(=O)NN=C3C(=O)Nc4ccccc43)n2C)cc1", "note": "[Compound 6a, 2–(1-Methyl-5–(4-methylbenzoyl)-1H-pyrrol-2-yl)-N′-(2-oxoindolin-3-ylidene) acetohydrazide]", "values": [
      {"measurement": "melting point", "result": "193 to 195", "unit": "°C"},
      {"measurement": "inhibition at 10 µM", "setting": "[1]", "result": "< 10", "unit": "%"},
      {"measurement": "inhibition at 10 µM", "setting": "[2]", "result": "< 10", "unit": "%"},
      {"measurement": "inhibition at 10 µM", "setting": "[3]", "result": "< 10", "unit": "%"},
      {"measurement": "inhibition at 10 µM", "setting": "[4]", "result": "< 10", "unit": "%"},
      {"measurement": "inhibition at 10 µM", "setting": "[5]", "result": "< 10", "unit": "%"},
      {"measurement": "inhibition at 10 µM", "setting": "[6]", "result": "< 10", "unit": "%"},
      {"measurement": "inhibition at 10 µM", "setting": "[7]", "result": "< 10", "unit": "%"},
      {"measurement": "inhibition at 10 µM", "setting": "[8]", "result": "< 10", "unit": "%"},
      {"measurement": "inhibition at 10 µM", "setting": "[9]", "result": "< 10", "unit": "%"},
      {"measurement": "inhibition at 10 µM", "setting": "[10]", "result": 11.4, "unit": "%"},
      {"measurement": "inhibition at 10 µM", "setting": "[11]", "result": "< 10", "unit": "%"},
      {"measurement": "inhibition at 10 µM", "setting": "[12]", "result": 10.5, "unit": "%"},
      {"measurement": "inhibition at 10 µM", "setting": "[13]", "result": "< 10", "unit": "%"},
      {"measurement": "inhibition at 10 µM", "setting": "[14]", "result": "< 10", "unit": "%"},
      {"measurement": "inhibition at 10 µM", "setting": "[15]", "result": "< 10", "unit": "%"},
      {"measurement": "inhibition at 10 µM", "setting": "[16]", "result": 29.6, "unit": "%"},
      {"measurement": "inhibition at 10 µM", "setting": "[17]", "result": 12.3, "unit": "%"},
      {"measurement": "inhibition at 10 µM", "setting": "[18]", "result": "< 10", "unit": "%"},
      {"measurement": "inhibition at 10 µM", "setting": "[19]", "result": "< 10", "unit": "%"},
      {"measurement": "inhibition at 10 µM", "setting": "[20]", "result": "< 10", "unit": "%"},
      {"measurement": "inhibition at 10 µM", "setting": "[21]", "result": "< 10", "unit": "%"},
      {"measurement": "inhibition at 10 µM", "setting": "[22]", "result": "< 10", "unit": "%"},
      {"measurement": "inhibition at 10 µM", "setting": "[23]", "result": "< 10", "unit": "%"},
      {"measurement": "inhibition at 10 µM", "setting": "[24]", "result": 11.1, "unit": "%"},
      {"measurement": "inhibition at 10 µM", "setting": "[25]", "result": "< 10", "unit": "%"},
      {"measurement": "inhibition at 10 µM", "setting": "[26]", "result": "< 10", "unit": "%"},
      {"measurement": "inhibition at 10 µM", "setting": "[27]", "result": "< 10", "unit": "%"},
      {"measurement": "inhibition at 10 µM", "setting": "[28]", "result": 25.7, "unit": "%"},
      {"measurement": "inhibition at 10 µM", "setting": "[29]", "result": "< 10", "unit": "%"},
      {"measurement": "inhibition at 10 µM", "setting": "[30]", "result": "< 10", "unit": "%"}
    ]}
  ]
}
